Assay results taken from ChEMBL document CHEMBL1201862, “PubChem BioAssay data set” (2004).
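Method: 48-hour compound exposure of cells in 96-well plates, five concentrations, linear interpolation of endpoints. GI50 marks 50% less growth.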 Activity calls are given as the source filed them. No stated cut-off is given here; in the data, active = GI50 up to about 1.1 µM and inactive = higher.

Assays:
Assay in all cases: NCI tumour cell line growth inhibition, 48 h
RXF 393 = tested on: RXF 393
SNB-75 = tested on: SNB-75
MDA-MB-231 = tested on: MDA-MB-231
LOX IMVI = tested on: LOX IMVI
UO-31 = tested on: UO-31
HCT-116 = tested on: HCT-116
EKVX = tested on: EKVX
OVCAR-5 = tested on: OVCAR-5
UACC-257 = tested on: UACC-257
MDA-N = tested on: MDA-N
HCC 2998 = tested on: HCC 2998
M14 = tested on: M14
NCI-H460 = tested on: NCI-H460
OVCAR-3 = tested on: OVCAR-3
SK-MEL-28 = tested on: SK-MEL-28
CAKI-1 = tested on: CAKI-1
HOP-62 = tested on: HOP-62
HL-60 = tested on: HL-60
K562 = tested on: K562

Measured: GI50

CC(C)=C[C@H]1CCC2(OCCO2)[C@]1(C)COCc1ccccc1
inactive: RXF 393 5.98 µM | SNB-75 45.4 µM | MDA-MB-231 19.7 µM | LOX IMVI 17.2 µM | UO-31 43.6 µM | HCT-116 29.9 µM | EKVX 33 µM | OVCAR-5 18.4 µM | UACC-257 16.4 µM | MDA-N 33.7 µM | HCC 2998 16.4 µM | M14 33.3 µM | NCI-H460 22.3 µM | OVCAR-3 22 µM | SK-MEL-28 60.5 µM | CAKI-1 32 µM

COC(=O)C12C3C4C5(C(=O)OC)C(C1C35C(=O)N(C(C)C)C(C)C)C42C(=O)N(C(C)C)C(C)C (centres undefined)
inactive: RXF 393 > 50 µM | HOP-62 > 50 µM | SNB-75 > 35.5 µM | LOX IMVI > 27.1 µM | UO-31 > 50 µM | HCT-116 14.7 µM | EKVX > 50 µM | OVCAR-5 > 50 µM | UACC-257 > 50 µM | HCC 2998 > 50 µM | HL-60 > 36.3 µM | M14 > 50 µM | NCI-H460 > 37.6 µM | OVCAR-3 > 50 µM | SK-MEL-28 > 50 µM | CAKI-1 > 50 µM | K562 > 47.4 µM

CCCN(CCC)C(=O)Cc1c2n(c3ccccc13)CCCc1ccccc1-2
inactive: RXF 393 10.4 µM | HOP-62 16.4 µM | SNB-75 11.9 µM | LOX IMVI 15.4 µM | UO-31 14.1 µM | HCT-116 13.5 µM | EKVX 15.1 µM | UACC-257 13.9 µM | HCC 2998 13.2 µM | HL-60 15.4 µM | M14 13.5 µM | NCI-H460 15.6 µM | OVCAR-3 16 µM | SK-MEL-28 16.3 µM | CAKI-1 14.8 µM | K562 12.5 µM

O=C(Nc1ccc(Cl)cc1)c1cccc([N+](=O)[O-])c1O
inactive: RXF 393 1.78 µM | HOP-62 1.98 µM | SNB-75 3.52 µM | LOX IMVI 3.74 µM | UO-31 1.98 µM | HCT-116 3.94 µM | EKVX 2.98 µM | OVCAR-5 12 µM | UACC-257 2.24 µM | HCC 2998 1.99 µM | HL-60 2.07 µM | M14 3.63 µM | NCI-H460 2.1 µM | OVCAR-3 1.81 µM | SK-MEL-28 4.99 µM | CAKI-1 3.19 µM | K562 2.58 µM

CC(C)(C)[Si](C)(C)OC1/C(=C/C#N)C(n2ccc(=O)[nH]c2=O)OC1CO (centres undefined)
inactive: RXF 393 > 100 µM | HOP-62 > 100 µM | MDA-MB-231 > 100 µM | UO-31 > 100 µM | HCT-116 > 100 µM | OVCAR-5 > 100 µM | MDA-N > 100 µM | M14 > 100 µM | NCI-H460 > 100 µM | OVCAR-3 > 100 µM | SK-MEL-28 > 100 µM | CAKI-1 > 100 µM | K562 96.2 µM

COC(=O)C(=O)C(C(=O)OC)C(=O)C(=O)Nc1cc(Cl)c(C)cc1S(=O)(=O)O (centres undefined)
inactive: RXF 393 > 100 µM | HOP-62 > 100 µM | SNB-75 74.3 µM | LOX IMVI > 100 µM | UO-31 > 100 µM | HCT-116 > 100 µM | EKVX > 100 µM | OVCAR-5 > 100 µM | UACC-257 > 100 µM | HCC 2998 > 100 µM | HL-60 > 100 µM | M14 > 100 µM | NCI-H460 > 100 µM | OVCAR-3 > 100 µM | SK-MEL-28 > 100 µM | CAKI-1 > 100 µM | K562 > 100 µM

COc1ccc2c(c1)CCN1C3=C(CCC3)C(=O)C[C@@H]21
inactive: RXF 393 > 100 µM | HOP-62 > 100 µM | SNB-75 44.9 µM | LOX IMVI > 100 µM | UO-31 43.6 µM | HCT-116 > 100 µM | EKVX > 100 µM | OVCAR-5 89.9 µM | UACC-257 > 100 µM | HCC 2998 > 100 µM | HL-60 23.2 µM | M14 > 100 µM | NCI-H460 > 100 µM | OVCAR-3 > 100 µM | SK-MEL-28 > 100 µM | CAKI-1 > 100 µM | K562 > 100 µM

O=C1NCCS(=O)(=O)N2CCC[C@@H]12
inactive: RXF 393 > 100 µM | HOP-62 > 100 µM | SNB-75 > 100 µM | LOX IMVI > 100 µM | UO-31 > 100 µM | HCT-116 > 100 µM | EKVX > 100 µM | OVCAR-5 > 100 µM | UACC-257 > 100 µM | HCC 2998 > 100 µM | HL-60 > 100 µM | M14 > 100 µM | NCI-H460 > 100 µM | OVCAR-3 > 100 µM | SK-MEL-28 > 100 µM | CAKI-1 > 100 µM | K562 > 100 µM

C=C1C(C(=O)O)C1C(=O)O (centres undefined)
inactive: RXF 393 > 100 µM | HOP-62 > 100 µM | SNB-75 > 100 µM | LOX IMVI > 100 µM | UO-31 > 100 µM | HCT-116 > 100 µM | EKVX > 100 µM | OVCAR-5 > 100 µM | UACC-257 > 100 µM | HCC 2998 > 100 µM | HL-60 > 100 µM | M14 > 100 µM | NCI-H460 > 100 µM | SK-MEL-28 > 100 µM | CAKI-1 > 100 µM | K562 > 100 µM

CNC(=O)CN(CC(N)=O)C(=O)NC
inactive: RXF 393 > 100 µM | HOP-62 > 100 µM | SNB-75 > 100 µM | LOX IMVI > 100 µM | UO-31 > 100 µM | EKVX > 100 µM | OVCAR-5 > 100 µM | HCC 2998 > 100 µM | HL-60 > 100 µM | M14 > 100 µM | NCI-H460 > 100 µM | OVCAR-3 > 100 µM | SK-MEL-28 > 100 µM | CAKI-1 > 100 µM | K562 > 100 µM

O=C(O)CCSC(=O)Nc1cccc([N+](=O)[O-])c1
inactive: RXF 393 > 100 µM | HOP-62 > 100 µM | SNB-75 > 100 µM | LOX IMVI 66.7 µM | UO-31 63 µM | HCT-116 > 100 µM | EKVX > 100 µM | UACC-257 > 100 µM | HCC 2998 > 100 µM | HL-60 > 100 µM | M14 > 100 µM | NCI-H460 > 100 µM | OVCAR-3 > 100 µM | SK-MEL-28 > 100 µM | CAKI-1 71.1 µM | K562 > 100 µM

O=C(CN(c1ccccc1)c1ccccc1)n1nnc2ccccc21
inactive: RXF 393 26.1 µM | HOP-62 > 100 µM | SNB-75 27 µM | LOX IMVI 24.2 µM | UO-31 14.3 µM | HCT-116 24.3 µM | EKVX 36 µM | OVCAR-5 > 100 µM | UACC-257 41.4 µM | HCC 2998 49.8 µM | HL-60 29.5 µM | M14 52.8 µM | NCI-H460 70.8 µM | OVCAR-3 44.6 µM | SK-MEL-28 37.2 µM | CAKI-1 53 µM | K562 37.8 µM
